Results as given in article PMC11601558, “SLC6A19 inhibition facilitates urinary neutral amino acid excretion and lowers plasma phenylalanine” (JCI Insight, 2024).
Like-named read-outs stand apart in the source and are kept apart here.

How the values were obtained:
[1] = JNT-517 plasma pharmacokinetics in healthy volunteers; format: in vivo, human; details: for half-life / Tmax: human, plasma, oral; for half-life: read-out: Mean T1/2 (converted); for Tmax: min, read-out: Median Tmax
Protocol: The plasma pharmacokinetic profile of JNT-517 was measured using a qualified high-performance LC-MS assay. Blood samples for PK analysis were taken before dosing, and 0.5, 1, 1.5, 2, 2.5, 3, 4, 6, 8, 10, 12, 24, 36, […], and 72 hours after dosing in the SAD study. For the MAD study, blood samples for PK analysis were taken before dosing, and 0.5, 1, 1.5, 2, 2.5, 3, 4, 6, 8, 10, 12, and 24 hours after dosing in the case of once-daily dosing or 0.5, 1, 1.5, 2, 2.5, 3, 4, 6, 8.5, 9 9.5, 10, 10.5, 11, 12, 14, 16, and 24 hours after dosing in the case of twice daily dosing. In addition, predose samples were collected throughout days 3–13. The resulting concentration-time data was evaluated using standard noncompartmental analysis methods, and PK parameters were calculated (Cmax, Tmax, T1/2, AUC0-inf, CL/F, Vd/F).
IC50 values for transport inhibition in cells overexpressing SLC6A19 and TMEM27 were calculated using a 4-parameter logistic regression in Collaborative Drug Discovery (CDD). Reported IC50 values are geometric means of 4–6 independent experiments. For postmortem intestinal transport assays, single outliers of quadruplicate replicates were excluded from the calculation if a signal value’s distance to the mean exceeded 35% of the signal average. The IC50 values of individual experiments were calculated with a 3- or 4-parameter logistic regression using GraphPad Prism 9. The reported IC50 value represents the geometric mean of n = 5 experiments from 3 individual donors. Statistical comparison of urinary Phe excretion in Pah^enu2 mice treated with vehicle or JN-170 was conducted using 1-way analysis of variance (ANOVA) with Tukey’s post hoc comparison. Statistical analysis of baseline-adjusted plasma Phe in mice treated with vehicle or JN-170 was determined by 2-way ANOVA with Dunnett’s post hoc comparison. All statistical analyses were performed using GraphPad Prism 9. For clinical studies, group sizes were not determined based on statistical power calculations. Statistical significance of pharmacodynamic results was not assessed. Values are reported as mean (urinary Phe excretion, T1/2, Cl/F), geometric mean (Cmax/D, AUC0-inf/D), or median (Tmax).

SLC6A19 = target: T1, SLC6A19 (Homo sapiens, UniProt Q695T7); assay: SLC6A19 glutamine transport assay in human postmortem intestinal epithelial cells; format: cell-based; details: endogenous SLC6A19; geometric mean n = 5, 3 donors; 95% CI 33–197 nM
T1 construct: human intestinal epithelial cells with endogenous expression levels of SLC6A19; tissue AnaBios; host or cells: epithelial cells scraped from distal jejunum of human postmortem intestine (3 male donors)
Text: Human postmortem intestines from 3 male donors (ages 23–36 years) were provided by AnaBios. Following trimming of excess fat, the distal part of the jejunum was dissected into tissue sections of approximately 100 cm^2 and further processed on ice. These sections contained an estimated approximately 250 million epithelial cells ([28], [29]). Epithelial cells were scraped off each tissue section with a tissue scraper and collected in ice-cold Hank’s balanced salt solution (HBSS). Following centrifuging for 5 min at 300g at 4°C, the supernatant was aspirated and the cell pellet was washed 3–6 times by resuspending in ice-cold HBSS (Thermo Fisher Scientific). […]
Human postmortem epithelial cells isolated from small intestine were centrifuged for 5 minutes at 300g and 4°C and resuspended in Krebs buffer (140 mM sodium chloride, 4.7 mM KCl, 2.5 mM CaCl2, 1.2 mM MgCl2, 11 mM HEPES, 10 mM glucose, pH 7.4) at a density of 7.5 × 10^6 cells/mL. […] The uptake of 2,3,4-^3H–labeled L-glutamine was measured on a Microbeta^2 microplate counter (PerkinElmer).
IC50 values for transport inhibition in cells overexpressing SLC6A19 and TMEM27 were calculated using a 4-parameter logistic regression in Collaborative Drug Discovery (CDD). […] The IC50 values of individual experiments were calculated with a 3- or 4-parameter logistic regression using GraphPad Prism 9. […]

T1 sequence (Q695T7 whole entry): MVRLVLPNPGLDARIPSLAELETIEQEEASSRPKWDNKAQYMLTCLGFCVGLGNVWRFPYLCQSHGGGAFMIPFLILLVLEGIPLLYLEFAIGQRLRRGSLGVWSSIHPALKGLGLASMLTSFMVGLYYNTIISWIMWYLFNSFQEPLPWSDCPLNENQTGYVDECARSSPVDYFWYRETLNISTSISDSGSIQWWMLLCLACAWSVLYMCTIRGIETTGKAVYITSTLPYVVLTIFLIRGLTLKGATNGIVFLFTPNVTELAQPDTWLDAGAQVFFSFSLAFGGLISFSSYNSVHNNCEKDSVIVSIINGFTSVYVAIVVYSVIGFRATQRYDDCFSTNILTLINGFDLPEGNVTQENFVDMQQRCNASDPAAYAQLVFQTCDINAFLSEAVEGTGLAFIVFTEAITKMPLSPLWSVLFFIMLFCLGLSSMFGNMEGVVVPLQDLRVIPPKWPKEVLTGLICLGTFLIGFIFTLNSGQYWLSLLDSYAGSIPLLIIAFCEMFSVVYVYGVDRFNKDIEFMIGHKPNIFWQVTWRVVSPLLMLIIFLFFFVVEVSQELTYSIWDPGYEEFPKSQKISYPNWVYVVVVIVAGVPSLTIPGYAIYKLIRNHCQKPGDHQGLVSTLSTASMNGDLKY
T1 sequence (Q9BYF1 18-805 partner): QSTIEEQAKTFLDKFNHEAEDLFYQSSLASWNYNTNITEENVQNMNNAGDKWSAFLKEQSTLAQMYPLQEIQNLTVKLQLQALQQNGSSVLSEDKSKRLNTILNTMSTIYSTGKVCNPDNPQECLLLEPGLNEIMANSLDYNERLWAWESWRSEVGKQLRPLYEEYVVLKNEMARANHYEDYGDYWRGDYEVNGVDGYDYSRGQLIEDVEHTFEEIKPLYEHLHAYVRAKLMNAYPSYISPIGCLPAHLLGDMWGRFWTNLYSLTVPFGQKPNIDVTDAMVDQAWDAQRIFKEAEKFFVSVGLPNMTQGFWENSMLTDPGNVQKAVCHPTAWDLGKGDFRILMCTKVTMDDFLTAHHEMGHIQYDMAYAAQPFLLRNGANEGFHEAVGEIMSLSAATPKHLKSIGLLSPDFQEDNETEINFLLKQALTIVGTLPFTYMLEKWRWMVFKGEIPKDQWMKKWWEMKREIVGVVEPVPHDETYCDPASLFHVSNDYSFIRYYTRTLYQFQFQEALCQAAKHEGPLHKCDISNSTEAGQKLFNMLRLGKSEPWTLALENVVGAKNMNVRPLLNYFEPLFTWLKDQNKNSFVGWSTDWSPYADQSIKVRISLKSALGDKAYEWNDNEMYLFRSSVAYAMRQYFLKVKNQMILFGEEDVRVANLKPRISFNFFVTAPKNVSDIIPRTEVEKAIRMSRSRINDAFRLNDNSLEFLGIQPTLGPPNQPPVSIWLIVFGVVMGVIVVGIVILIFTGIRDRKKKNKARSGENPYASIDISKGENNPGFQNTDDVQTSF

For `NC(=O)N1CCC[C@@H](N(C(=O)NCc2ccc(OC(F)(F)F)cc2F)C2CC2)C1` [JNT-517], the “plasma exposure exceeding the in vitro IC75” value ([1]; MAD 150 mg QD) was “approximately 24 hours”, the “accumulation between days 1 and 14” value ([1]; MAD cohorts, dose levels tested) was “no accumulation was observed” and the “Geomean Cmax/D” value ([1]; SAD 10 mg, %CV 23.6) was 45.9 ng/mL/mg. The “Geomean AUC0-inf/D” value ([1]; SAD 10 mg, %CV 66.0) was 340 ng·h/mL/mg, the “Mean Cl/F” value ([1]; SAD 10 mg, SD 1.75) was 3.36 L/h and the “Geomean Cmax/D” value ([1]; SAD 25 mg, %CV 25.5) was 48.5 ng/mL/mg. The “Geomean AUC0-inf/D” value ([1]; SAD 25 mg, %CV 59.0) was 402 ng·h/mL/mg, the “Mean Cl/F” value ([1]; SAD 25 mg, SD 1.27) was 2.78 L/h and the “Geomean Cmax/D” value ([1]; SAD 50 mg, %CV 14.8) was 44.6 ng/mL/mg. For the same molecule, the “Geomean AUC0-inf/D” value ([1]; SAD 50 mg, %CV 34.5) was 348 ng·h/mL/mg, the “Mean Cl/F” value ([1]; SAD 50 mg, SD 0.873) was 3.00 L/h and the “Geomean Cmax/D” value ([1]; SAD 100 mg, %CV 13.0) was 35.0 ng/mL/mg. The “Geomean AUC0-inf/D” value ([1]; SAD 100 mg, %CV 42.4) was 239 ng·h/mL/mg, the “Mean Cl/F” value ([1]; SAD 100 mg, SD 2.11) was 4.52 L/h and the “Geomean Cmax/D” value ([1]; SAD 170 mg, %CV 24.9) was 32.9 ng/mL/mg. The “Geomean AUC0-inf/D” value ([1]; SAD 170 mg, %CV 33.6) was 269 ng·h/mL/mg, the “Mean Cl/F” value ([1]; SAD 170 mg, SD 1.15) was 3.87 L/h and the half-life ([1]; SAD 10 mg, %CV 50.2) was 6.37 h. For the same molecule, the Tmax ([1]; SAD 10 mg, max 0.5, 1.07) was 0.75 h, the half-life ([1]; SAD 25 mg, %CV 50.7) was 7.78 h and the Tmax ([1]; SAD 25 mg, max 0.5, 2.0) was 1 h. It also gave a half-life ([1]; SAD 50 mg, %CV 35.4) of 6.17 h, a Tmax ([1]; SAD 50 mg, max 0.5, 2.0) of 0.75 h and a half-life ([1]; SAD 100 mg, %CV 31.9) of 5.89 h. For the same molecule, the Tmax ([1]; SAD 100 mg, max 0.5, 1.5) was 1 h, the half-life ([1]; SAD 170 mg, %CV 24.7) was 6.04 h and the Tmax ([1]; SAD 170 mg, max 0.5, 2.0) was 0.75 h. The “exposure above the in vitro IC75” value ([1]; single 50 mg dose) was greater than 12 h, the “target coverage exceeding the IC75” value ([1]; single 170 mg dose) was “approximately 24 hours” and the IC50 (SLC6A19) was 81 nM.
